The values that follow come from patent US9593108B2, “Compounds and methods for antiviral treatment” (PTC Therapeutics, Inc., priority 2009, dated 2017).

Series [1] relates to HCV replicon RNA (GenBank Accession No. AJ242654). Nature of the series: HCV Replicon Assay (replicon RNA reduction and/or Fluc reporter signal). Format: cell-based, Hepatitis C virus. Conditions: Hepatitis C virus, 72 h, replicon-containing cells cultured with test compound for up to 3 days. The procedure, abridged: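 Bicistronic replicon-containing cells cultured with compound for up to 3 days, with interferon as positive control. Inhibition quantified by replicon RNA reduction and/or Fluc reporter signal; IC50 values generally derived from replicon RNA reduction.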

`Cc1cnc2c(C#N)c(-c3ccc(S(=O)(=O)N[C@@H](C)C(F)(F)F)cn3)n(-c3cc(C(F)(F)F)ccn3)c2c1` [Cpd 479, 6-{3-cyano-6-methyl-1-[4-(trifluoromethyl)pyridin-2-yl]-1H-pyrrolo[3,2-b]pyridin-2-yl}-N-[(2S)-1,1,1-trifluoropropan-2-yl]pyridine-3-sulfonamide] showed a melting point of 245 to 246 °C. The molecule further showed a concentration for half-maximal inhibition (IC50) in series [1] of 500 to 2000 nM.

In turn, `Cc1cnc2c(c1)c(C#N)c(-c1ccc(NS(=O)(=O)C(C)C)cc1)n2C1CCC1` [Cpd 267, N-[4-(3-cyano-1-cyclobutyl-5-methyl-1H-pyrrolo[2,3-b]pyridin-2-yl)phenyl]propane-2-sulfonamide] yielded a melting point of 155 to 164 °C. For the same molecule, the IC50 in series [1] lay within 500 to 2000 nM.

As to `Cc1cnc2c(c1)c(C#N)c(-c1ccc(S(=O)(=O)N[C@@H](C)C(F)(F)F)cn1)n2-c1ccccc1` [Cpd 348, 6-(3-cyano-5-methyl-1-phenyl-1H-pyrrolo[2,3-b]pyridin-2-yl)-N-[(2S)-1,1,1-trifluoropropan-2-yl]pyridine-3-sulfonamide], the melting point is 220 to 222 °C. In series [1], the IC50 is < 500 nM.

`N#Cc1c(-c2ccc(S(=O)(=O)NC3(C(F)(F)F)CC3)cn2)n(C2CCC2)c2ncc(C(F)(F)F)cc12` [Cpd 396, 6-[3-cyano-1-cyclobutyl-5-(trifluoromethyl)-1H-pyrrolo[2,3-b]pyridin-2-yl]-N-[1-(trifluoromethyl)cyclopropyl]pyridine-3-sulfonamide] had a melting point of 156 to 158 °C. In series [1], the 50% inhibitory concentration (IC50) was < 500 nM.

Molecule `CC1(NS(=O)(=O)c2ccc(-c3c(C#N)c4cnc(Cl)cc4n3C3CCC3)nc2)CC1` [Cpd 99, 6-(6-chloro-3-cyano-1-cyclobutyl-1H-pyrrolo[3,2-c]pyridin-2-yl)-N-(1-methylcyclopropyl)pyridine-3-sulfonamide] came in with a melting point of 167 to 168 °C. Moreover, the half-inhibitory concentration (IC50) in series [1] was < 500 nM.

For the molecule `CC1(NS(=O)(=O)c2cnc(-c3c(C#N)c4cc(C#N)cnc4n3C3CCC3)nc2)CC1` [Cpd 114, 2-(3,5-dicyano-1-cyclobutyl-1H-pyrrolo[2,3-b]pyridin-2-yl)-N-(1-methylcyclopropyl)pyrimidine-5-sulfonamide], the melting point lay within 229 to 231 °C. In addition, in series [1], the half-inhibitory concentration (IC50) was < 500 nM.

On to `C[C@H](NS(=O)(=O)c1ccc(-c2c(C#N)c3cc(C(F)(F)F)cnc3n2C2CCC2)cc1)C(F)(F)F` [Cpd 300, 4-[3-cyano-1-cyclobutyl-5-(trifluoromethyl)-1H-pyrrolo[2,3-b]pyridin-2-yl]-N-[(2S)-1,1,1-trifluoropropan-2-yl]benzenesulfonamide], for which the melting point is 218 to 220 °C. In series [1], the half-maximal inhibitory concentration (IC50) was < 500 nM.

In turn, `Cc1cnc2c(c1)c(C#N)c(-c1cc(C)c(S(=O)(=O)N[C@@H](C)C(F)(F)F)cn1)n2C1CCC1` [Cpd 289, 6-(3-cyano-1-cyclobutyl-5-methyl-1H-pyrrolo[2,3-b]pyridin-2-yl)-4-methyl-N-[(2S)-1,1,1-trifluoropropan-2-yl]pyridine-3-sulfonamide] returned a melting point of 218 to 223 °C. In addition, in series [1], the IC50 is < 500 nM.

In the case of `CC(C)(NS(=O)(=O)c1ccc(-c2c(C#N)c3cc(C(F)(F)F)cnc3n2C2CCCCC2)cc1)C(F)(F)F` [Cpd 418, 4-[3-cyano-1-cyclohexyl-5-(trifluoromethyl)-1H-pyrrolo[2,3-b]pyridin-2-yl]-N-(1,1,1-trifluoro-2-methylpropan-2-yl)benzenesulfonamide], the melting point was 203 to 205 °C. In series [1], the half-inhibitory concentration (IC50) was < 500 nM.

Regarding `N#Cc1c(-c2ccc(S(=O)(=O)NC3(C(F)(F)F)CC3)cc2)n(C2CCCCC2)c2ncc(C(F)(F)F)cc12` [Cpd 420, 4-[3-cyano-1-cyclohexyl-5-(trifluoromethyl)-1H-pyrrolo[2,3-b]pyridin-2-yl]-N-[1-(trifluoromethyl)cyclopropyl]benzenesulfonamide], the melting point was in the range of 195 to 197 °C. For the same molecule, in series [1], the IC50 was < 500 nM.

As for `Cc1cnc2c(c1)c(C#N)c(-c1ccc(NC(C)C)cc1)n2C1CCC1` [Cpd 264, 1-cyclobutyl-5-methyl-2-[4-(propan-2-ylamino)phenyl]-1H-pyrrolo[2,3-b]pyridine-3-carbonitrile], the melting point is 193 to 199 °C. The concentration for half-maximal inhibition (IC50) in series [1] is < 500 nM.

Consider `CC(C)(C)NS(=O)(=O)c1ccc(-c2c(C#N)c3cc(F)cnc3n2-c2cnccn2)nc1` [Cpd 521, N-tert-butyl-6-[3-cyano-5-fluoro-1-(pyrazin-2-yl)-1H-pyrrolo[2,3-b]pyridin-2-yl]pyridine-3-sulfonamide], for which the melting point is 245 to 247 °C. Also, the IC50 in series [1] is < 500 nM.

The molecule `CC(C)(NS(=O)(=O)c1ccc(-c2c(C(N)=O)c3cc(C(F)(F)F)cnc3n2C2CCC2)nc1)C(F)(F)F` [Cpd 399, 1-cyclobutyl-5-(trifluoromethyl)-2-{5-[(1,1,1-trifluoro-2-methylpropan-2-yl)sulfamoyl]pyridin-2-yl}-1H-pyrrolo[2,3-b]pyridine-3-carboxamide] showed a melting point of 217 to 219 °C. In addition, the IC50 in series [1] was < 500 nM.

For the molecule `COc1cnc2c(c1)c(C#N)c(-c1ccc(S(=O)(=O)N(C(C)=O)[C@@H](C)C(F)(F)F)cn1)n2C1CCCC1` [Cpd 257, N-{[6-(3-cyano-1-cyclopentyl-5-methoxy-1H-pyrrolo[2,3-b]pyridin-2-yl)pyridin-3-yl]sulfonyl}-N-[(2S)-1,1,1-trifluoropropan-2-yl]acetamide], the melting point lay within 169 to 173 °C. The IC50 in series [1] was < 500 nM.

`Cc1cnc2c(c1)c(C#N)c(-c1ccc(S(=O)(=O)N[C@@H](C)C(F)(F)F)cn1)n2-c1cnccn1` [Cpd 349, 6-[3-cyano-5-methyl-1-(pyrazin-2-yl)-1H-pyrrolo[2,3-b]pyridin-2-yl]-N-[(2S)-1,1,1-trifluoropropan-2-yl]pyridine-3-sulfonamide] registered a melting point of 220 to 222 °C. In series [1], the concentration for half-maximal inhibition (IC50) was < 500 nM.

`Cc1cc2c(cn1)c(C#N)c(-c1ccc(S(=O)(=O)NC(CF)CF)cc1)n2C1CCC1` [Cpd 33, 4-(3-cyano-1-cyclobutyl-6-methyl-1H-pyrrolo[3,2-c]pyridin-2-yl)-N-(1,3-difluoropropan-2-yl)benzenesulfonamide]: the melting point lay within 234 to 236 °C. For the same molecule, the half-maximal inhibitory concentration (IC50) in series [1] was < 500 nM.

In turn, `N#Cc1c(-c2ccc(S(=O)(=O)NC(CF)CF)cn2)n(C2CCCC2)c2ncc(Cl)cc12` [Cpd 10, 6-(5-chloro-3-cyano-1-cyclopentyl-1H-pyrrolo[2,3-b]pyridin-2-yl)-N-(1,3-difluoropropan-2-yl)pyridine-3-sulfonamide] came in with a melting point of 208 to 209 °C. The concentration for half-maximal inhibition (IC50) in series [1] was < 500 nM.

`COc1ccc2c(n1)c(C#N)c(-c1ccc(NS(=O)(=O)C(C)C)cc1)n2CC1CC1` [Cpd 3, N-{4-[3-cyano-1-(cyclopropylmethyl)-5-methoxy-1H-pyrrolo[3,2-b]pyridin-2-yl]phenyl}propane-2-sulfonamide]: the melting point is 230 to 232 °C. The half-maximal inhibitory concentration (IC50) in series [1] is < 500 nM.

As for `C[C@H](NS(=O)(=O)c1ccc(-c2c(C#N)c3cc(C(F)(F)F)cnc3n2-c2ccccn2)nc1)C(F)(F)F` [Cpd 317, 6-[3-cyano-1-(pyridin-2-yl)-5-(trifluoromethyl)-1H-pyrrolo[2,3-b]pyridin-2-yl]-N-[(2S)-1,1,1-trifluoropropan-2-yl]pyridine-3-sulfonamide], the melting point lay within 110 to 112 °C. Further, in series [1], the IC50 is < 500 nM.

As to `CC(C)(C)NS(=O)(=O)c1ccc(-c2c(C#N)c3cc(C(F)(F)F)cnc3n2-c2ccccn2)nc1` [Cpd 518, N-tert-butyl-6-[3-cyano-1-(pyridin-2-yl)-5-(trifluoromethyl)-1H-pyrrolo[2,3-b]pyridin-2-yl]pyridine-3-sulfonamide], the melting point is 210.4 to 211.8 °C. The IC50 in series [1] is < 500 nM.

In turn, `Cc1cnc2c(c1)c(C#N)c(-c1ccc(S(=O)(=O)N[C@@H](C)C(F)(F)F)cc1)n2C(C)C` [Cpd 486, 4-[3-cyano-5-methyl-1-(propan-2-yl)-1H-pyrrolo[2,3-b]pyridin-2-yl]-N-[(2S)-1,1,1-trifluoropropan-2-yl]benzenesulfonamide] returned a melting point of 197 to 202 °C. Further, in series [1], the IC50 was < 500 nM.

Molecule `Cc1cnc2c(c1)c(C#N)c(-c1ccc(S(=O)(=O)N[C@@H](C)C(F)(F)F)cc1)n2C1CCCC1` [Cpd 263, 4-(3-cyano-1-cyclopentyl-5-methyl-1H-pyrrolo[2,3-b]pyridin-2-yl)-N-[(2S)-1,1,1-trifluoropropan-2-yl]benzenesulfonamide] displayed a melting point of 191 to 196 °C. In series [1], the 50% inhibitory concentration (IC50) is < 500 nM.

`C[C@@H](NS(=O)(=O)c1ccc(-c2c(C#N)c3cc(C4CC4)cnc3n2C2CCCC2)nc1)C(F)(F)F` [Cpd 249, 6-(3-cyano-1-cyclopentyl-5-cyclopropyl-1H-pyrrolo[2,3-b]pyridin-2-yl)-N-[(2R)-1,1,1-trifluoropropan-2-yl]pyridine-3-sulfonamide] had a melting point of 155 to 164 °C. For the same molecule, the 50% inhibitory concentration (IC50) in series [1] lay within 500 to 2000 nM.

As usually defined, the melting point is the temperature, or range, at which the solid turns liquid. One may read the IC50 as the concentration that gives 50% inhibition. A high value points to a need for much substance.
